# Columns and labels:
# [1] = tested on: H9; experiment: Hoechst 33342 nuclear staining (Table 3); assay type: cell-based, human; parameters: key: 0 relating to no activity; 1 relating to weak activity comprising less than 50% of the cells; score 2 relating to strong activity comprising more than 50% of the cells
# In short: (§1)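 Adherent cells (3-5×10^3, pre-spread 24 h) or suspension cells (8-10×10^3) treated with compounds at 10, 3, 1 and 0.3 µM for 24 or 48 h, then Hoechst 33342 stained for 30 min. Apoptotic nuclear morphology scored by fluorescence microscopy: 0 none, 1 weak (<50% cells), 2 strong (>50% cells).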
# [2] = tested on: HBL 100; experiment: Hoechst 33342 nuclear staining (Table 3); assay type: cell-based, human; parameters: key: 0 relating to no activity; 1 relating to weak activity comprising less than 50% of the cells; score 2 relating to strong activity comprising more than 50% of the cells
# In short: as §1
# [3] = tested on: HT 1080; experiment: Hoechst 33342 nuclear staining (Table 3); assay type: cell-based, human; parameters: key: 0 relating to no activity; 1 relating to weak activity comprising less than 50% of the cells; score 2 relating to strong activity comprising more than 50% of the cells
# In short: as §1
# [4] = tested on: PC-3; experiment: Hoechst 33342 nuclear staining (Table 3); assay type: cell-based, human; parameters: key: 0 relating to no activity; 1 relating to weak activity comprising less than 50% of the cells; score 2 relating to strong activity comprising more than 50% of the cells
# In short: as §1
# [5] = tested on: Ramos; experiment: Hoechst 33342 nuclear staining (Table 3); assay type: cell-based, human; parameters: key: 0 relating to no activity; 1 relating to weak activity comprising less than 50% of the cells; score 2 relating to strong activity comprising more than 50% of the cells
# In short: as §1
# [6] = tested on: HeLa; experiment: AnnexinV/7-AAD staining; assay type: cell-based, human; conditions: 10 µM, 24 h treatment
# In short: (§2)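 Cells treated with compound at 10 µM final for 24 h, then stained with AnnexinV-GST/anti-GST Alexa 488 and 7-AAD and analysed by flow cytometry. Percent positive cells scored as 0 (<10%), 1 (10–50%) or 2 (>50%).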
# [7] = tested on: Jurkat; experiment: AnnexinV/7-AAD staining; assay type: cell-based, human; conditions: 10 µM, 24 h treatment
# In short: as §2
# [8] = tested on: Ramos; experiment: AnnexinV/7-AAD staining; assay type: cell-based, human; conditions: 10 µM, 24 h treatment
# In short: as §2
# [9] = tested on: A20; experiment: AnnexinV/7-AAD staining; assay type: cell-based, mouse; conditions: A20, 10 µM, 24 h treatment
# In short: as §2
compound,measurement,setting,value
"CC1(C)Cc2ccccc2-c2c(Br)c3nc4ccccc4nc3n21 [No. 2, 13-Bromo-6,6-dimethyl-5,6-dihydro-6a,7,12-triaza-dibenzo[a,h]fluorene]","Hoechst 33342 nuclear staining (fraction of apoptotic nuclei), score","[1]; H9, 24h, 0.3 µM",0
same,"Hoechst 33342 nuclear staining (fraction of apoptotic nuclei), score","[1]; H9, 24h, 1 µM",0
same,"Hoechst 33342 nuclear staining (fraction of apoptotic nuclei), score","[1]; H9, 24h, 3 µM",0
same,"Hoechst 33342 nuclear staining (fraction of apoptotic nuclei), score","[1]; H9, 24h, 10 µM",0
same,"Hoechst 33342 nuclear staining (fraction of apoptotic nuclei), score","[1]; H9, 48h, 0.3 µM",0
same,"Hoechst 33342 nuclear staining (fraction of apoptotic nuclei), score","[1]; H9, 48h, 1 µM",0
same,"Hoechst 33342 nuclear staining (fraction of apoptotic nuclei), score","[1]; H9, 48h, 3 µM",0
same,"Hoechst 33342 nuclear staining (fraction of apoptotic nuclei), score","[1]; H9, 48h, 10 µM",0
same,"Hoechst 33342 nuclear staining (fraction of apoptotic nuclei), score","[2]; HBL 100, 24h, 0.3 µM",0
same,"Hoechst 33342 nuclear staining (fraction of apoptotic nuclei), score","[2]; HBL 100, 24h, 1 µM",0
same,"Hoechst 33342 nuclear staining (fraction of apoptotic nuclei), score","[2]; HBL 100, 24h, 3 µM",0
same,"Hoechst 33342 nuclear staining (fraction of apoptotic nuclei), score","[2]; HBL 100, 24h, 10 µM",0
same,"Hoechst 33342 nuclear staining (fraction of apoptotic nuclei), score","[2]; HBL 100, 48h, 0.3 µM",0
same,"Hoechst 33342 nuclear staining (fraction of apoptotic nuclei), score","[2]; HBL 100, 48h, 1 µM",0
same,"Hoechst 33342 nuclear staining (fraction of apoptotic nuclei), score","[2]; HBL 100, 48h, 3 µM",0
same,"Hoechst 33342 nuclear staining (fraction of apoptotic nuclei), score","[2]; HBL 100, 48h, 10 µM",2 (score 2 relating to strong activity comprising more than 50% of the cells)
same,"Hoechst 33342 nuclear staining (fraction of apoptotic nuclei), score","[3]; HT 1080, 24h, 0.3 µM",0
same,"Hoechst 33342 nuclear staining (fraction of apoptotic nuclei), score","[3]; HT 1080, 24h, 1 µM",0
same,"Hoechst 33342 nuclear staining (fraction of apoptotic nuclei), score","[3]; HT 1080, 24h, 3 µM",0
same,"Hoechst 33342 nuclear staining (fraction of apoptotic nuclei), score","[3]; HT 1080, 24h, 10 µM",0
same,"Hoechst 33342 nuclear staining (fraction of apoptotic nuclei), score","[3]; HT 1080, 48h, 0.3 µM",0
same,"Hoechst 33342 nuclear staining (fraction of apoptotic nuclei), score","[3]; HT 1080, 48h, 1 µM",0
same,"Hoechst 33342 nuclear staining (fraction of apoptotic nuclei), score","[3]; HT 1080, 48h, 3 µM",0
same,"Hoechst 33342 nuclear staining (fraction of apoptotic nuclei), score","[3]; HT 1080, 48h, 10 µM",1 (1 relating to weak activity comprising less than 50% of the cells)
same,"Hoechst 33342 nuclear staining (fraction of apoptotic nuclei), score","[4]; PC-3, 24h, 0.3 µM",0
same,"Hoechst 33342 nuclear staining (fraction of apoptotic nuclei), score","[4]; PC-3, 24h, 1 µM",0
same,"Hoechst 33342 nuclear staining (fraction of apoptotic nuclei), score","[4]; PC-3, 24h, 3 µM",0
same,"Hoechst 33342 nuclear staining (fraction of apoptotic nuclei), score","[4]; PC-3, 24h, 10 µM",0
same,"Hoechst 33342 nuclear staining (fraction of apoptotic nuclei), score","[4]; PC-3, 48h, 0.3 µM",0
same,"Hoechst 33342 nuclear staining (fraction of apoptotic nuclei), score","[4]; PC-3, 48h, 1 µM",0
same,"Hoechst 33342 nuclear staining (fraction of apoptotic nuclei), score","[4]; PC-3, 48h, 3 µM",0
same,"Hoechst 33342 nuclear staining (fraction of apoptotic nuclei), score","[4]; PC-3, 48h, 10 µM",2 (score 2 relating to strong activity comprising more than 50% of the cells)
same,Hoechst 33342 nuclear staining,"[5]; 24h, conc 0.3 (µM)",0
same,Hoechst 33342 nuclear staining,"[5]; 24h, conc 1 (µM)",0
same,Hoechst 33342 nuclear staining,"[5]; 24h, conc 3 (µM)",0
same,Hoechst 33342 nuclear staining,"[5]; 24h, conc 10 (µM)",2 (score 2 relating to strong activity comprising more than 50% of the cells)
same,Hoechst 33342 nuclear staining,"[5]; 48h, conc 0.3 (µM)",2 (score 2 relating to strong activity comprising more than 50% of the cells)
same,Hoechst 33342 nuclear staining,"[5]; 48h, conc 1 (µM)",2 (score 2 relating to strong activity comprising more than 50% of the cells)
same,Hoechst 33342 nuclear staining,"[5]; 48h, conc 3 (µM)",2 (score 2 relating to strong activity comprising more than 50% of the cells)
same,Hoechst 33342 nuclear staining,"[5]; 48h, conc 10 (µM)",2 (score 2 relating to strong activity comprising more than 50% of the cells)
same,percentage of positively stained cells (AnnexinV/7-AAD staining),[6],1 (score 1 relates to more than 10% but less than 50%)
same,percentage of positively stained cells (AnnexinV/7-AAD staining),[7],2 (score 2 relates to more than 50% positivity)
same,percentage of positively stained cells (AnnexinV/7-AAD staining),[8],2 (score 2 relates to more than 50% positivity)
same,percentage of positively stained cells (AnnexinV/7-AAD staining),[9],2 (score 2 relates to more than 50% positivity)

# Source: patent EP1433789A1, “Pyrrolopyrazines and their use as selective apoptosis inducers” (Aponetics AG, priority 2002, dated 2004)
